Results reported in ChEMBL document CHEMBL3885861, “Open TG-GATES”.

Species: Rattus norvegicus
Assay: Open TG-GATES - Regimen: Single
Assay type: toxicity, organism-based, Sprague-Dawley
Parameters: regimen Single, gender Male, age 6 weeks
Settings: in vivo, po, 60 mg/kg, route gavage, dose level High; for APTT / Bas / Eos / Fbg / Hb / Ht / Lym / MCH / MCHC / MCV / Mono / Neu / PT / Plat / RBC / Ret / WBC: tissue Blood; for KIDNEY_L / KIDNEY_R / KIDNEY_TOTAL: tissue Kidney; for LIVER: tissue Liver; for A/G / ALP / ALT / AST / BUN / CRE / Ca / Cl / DBIL / GLC / IP / K / LDH / Na / PL / RALB / TBIL / TC / TG / TP / gamma-GTP: tissue Plasma

For CC(C)NNC(=O)c1ccncc1 [IPRONIAZID], the TERMINAL_BW (3 h) was 204.9 g, the APTT (3 h) was 22.1 s and the Bas (3 h) was 0%. For the same compound, the Eos (3 h) was 1%, the Fbg (3 h) was 294 mg/dL and the Hb (3 h) was 12.7 g/dL. For the same compound, the Ht (3 h) was 37%, the Lym (3 h) was 74.8% and the MCH (3 h) was 20.9 pg. For the same compound, the MCHC (3 h) was 34.2%, the MCV (3 h) was 61 fL and the Mono (3 h) was 2%. The Neu (3 h) was 21.8%, the PT (3 h) was 16.2 s and the Plat (3 h) was 124.5 x10_4/uL. The RBC (3 h) was 608.8 x10_4/ul, the Ret (3 h) was 7.9% and the WBC (3 h) was 90.6 x10_2/uL. It also gave a KIDNEY_L (3 h) of 1 g, a KIDNEY_R (3 h) of 1 g and a KIDNEY_TOTAL (3 h) of 1.9 g. For the same compound, the LIVER (3 h) was 8.8 g, the A/G (3 h) was 1.3 and the ALP (3 h) was 1312.5 IU/L. The ALT (3 h) was 35 IU/L, the AST (3 h) was 72.2 IU/L and the BUN (3 h) was 12 mg/dL. The CRE (3 h) was 0.2 mg/dL, the Ca (3 h) was 10.5 mg/dL and the Cl (3 h) was 105.8 meq/L. For the same compound, the DBIL (3 h) was 0 mg/dL, the GLC (3 h) was 180.5 mg/dL and the IP (3 h) was 9.8 mg/dL. The K (3 h) was 4 meq/L, the LDH (3 h) was 221.5 IU/L and the Na (3 h) was 141.2 meq/L. The PL (3 h) was 136 mg/dL, the RALB (3 h) was 2.9 g/dL and the TBIL (3 h) was 0 mg/dL. It also gave a TC (3 h) of 78 mg/dL, a TG (3 h) of 34.8 mg/dL and a TP (3 h) of 5.2 g/dL. It also gave a gamma-GTP (3 h) of 1 IU/L, a TERMINAL_BW (6 h) of 212.4 g and an APTT (6 h) of 21.7 s. The Bas (6 h) was 0%, the Eos (6 h) was 0.8% and the Fbg (6 h) was 325.8 mg/dL. It also gave a Hb (6 h) of 13 g/dL, a Ht (6 h) of 38% and a Lym (6 h) of 72.2%. It also gave an MCH (6 h) of 21 pg, an MCHC (6 h) of 34.3% and an MCV (6 h) of 61.4 fL. It also gave a Mono (6 h) of 2%, a Neu (6 h) of 23.8% and a PT (6 h) of 15.6 s. For the same compound, the Plat (6 h) was 125.7 x10_4/uL, the RBC (6 h) was 619.8 x10_4/ul and the Ret (6 h) was 8%. It also gave a WBC (6 h) of 79.9 x10_2/uL, a KIDNEY_L (6 h) of 0.9 g and a KIDNEY_R (6 h) of 0.9 g. For the same compound, the KIDNEY_TOTAL (6 h) was 1.8 g, the LIVER (6 h) was 9.2 g and the A/G (6 h) was 1.3. The ALP (6 h) was 1181.8 IU/L, the ALT (6 h) was 35 IU/L and the AST (6 h) was 75.4 IU/L. It also gave a BUN (6 h) of 8.8 mg/dL, a CRE (6 h) of 0.1 mg/dL and a Ca (6 h) of 10.8 mg/dL. The Cl (6 h) was 106.8 meq/L, the DBIL (6 h) was 0.002 mg/dL and the GLC (6 h) was 180 mg/dL. For the same compound, the IP (6 h) was 9.9 mg/dL, the K (6 h) was 4.1 meq/L and the LDH (6 h) was 237.8 IU/L. The Na (6 h) was 142 meq/L, the PL (6 h) was 159.2 mg/dL and the RALB (6 h) was 3 g/dL. It also gave a TBIL (6 h) of 0.002 mg/dL, a TC (6 h) of 93.6 mg/dL and a TG (6 h) of 44.6 mg/dL. For the same compound, the TP (6 h) was 5.5 g/dL, the gamma-GTP (6 h) was 1.4 IU/L and the TERMINAL_BW (9 h) was 196.4 g. For the same compound, the APTT (9 h) was 22.5 s, the Bas (9 h) was 0% and the Eos (9 h) was 1%. It also gave a Fbg (9 h) of 320.6 mg/dL, a Hb (9 h) of 13 g/dL and a Ht (9 h) of 37.9%. The Lym (9 h) was 76%, the MCH (9 h) was 20 pg and the MCHC (9 h) was 34.3%. It also gave an MCV (9 h) of 58.3 fL, a Mono (9 h) of 1.4% and a Neu (9 h) of 21%. It also gave a PT (9 h) of 15.9 s, a Plat (9 h) of 121.4 x10_4/uL and an RBC (9 h) of 650.4 x10_4/ul. For the same compound, the Ret (9 h) was 6.3%, the WBC (9 h) was 55.2 x10_2/uL and the KIDNEY_L (9 h) was 0.9 g. The KIDNEY_R (9 h) was 0.9 g, the KIDNEY_TOTAL (9 h) was 1.8 g and the LIVER (9 h) was 8 g. The A/G (9 h) was 1.2, the ALP (9 h) was 1174.6 IU/L and the ALT (9 h) was 27.2 IU/L. It also gave an AST (9 h) of 65 IU/L, a BUN (9 h) of 7.6 mg/dL and a CRE (9 h) of 0.2 mg/dL. It also gave a Ca (9 h) of 10.4 mg/dL, a Cl (9 h) of 107 meq/L and a DBIL (9 h) of 0.006 mg/dL. The GLC (9 h) was 184.6 mg/dL, the IP (9 h) was 9.4 mg/dL and the K (9 h) was 4 meq/L. For the same compound, the LDH (9 h) was 176.2 IU/L, the Na (9 h) was 142.2 meq/L and the PL (9 h) was 139.6 mg/dL. It also gave an RALB (9 h) of 3.1 g/dL, a TBIL (9 h) of 0.004 mg/dL and a TC (9 h) of 84.4 mg/dL. It also gave a TG (9 h) of 30.4 mg/dL, a TP (9 h) of 5.6 g/dL and a gamma-GTP (9 h) of 1 IU/L. It also gave a TERMINAL_BW (24 h) of 208.5 g, an APTT (24 h) of 21.7 s and a Bas (24 h) of 0%. It also gave an Eos (24 h) of 1%, a Fbg (24 h) of 336.8 mg/dL and a Hb (24 h) of 13.6 g/dL. The Ht (24 h) was 39.4%, the Lym (24 h) was 80.6% and the MCH (24 h) was 21.3 pg. It also gave an MCHC (24 h) of 34.5%, an MCV (24 h) of 61.8 fL and a Mono (24 h) of 2.4%. The Neu (24 h) was 14.8%, the PT (24 h) was 15.4 s and the Plat (24 h) was 119.6 x10_4/uL. It also gave an RBC (24 h) of 637.4 x10_4/ul, a Ret (24 h) of 7.5% and a WBC (24 h) of 66.9 x10_2/uL. The KIDNEY_L (24 h) was 0.9 g, the KIDNEY_R (24 h) was 1 g and the KIDNEY_TOTAL (24 h) was 1.9 g. For the same compound, the LIVER (24 h) was 9.2 g, the A/G (24 h) was 1.3 and the ALP (24 h) was 1223.4 IU/L. For the same compound, the ALT (24 h) was 37 IU/L, the AST (24 h) was 74.4 IU/L and the BUN (24 h) was 14 mg/dL. For the same compound, the CRE (24 h) was 0.2 mg/dL, the Ca (24 h) was 10.6 mg/dL and the Cl (24 h) was 107 meq/L. For the same compound, the DBIL (24 h) was 0.002 mg/dL, the GLC (24 h) was 187.6 mg/dL and the IP (24 h) was 7.8 mg/dL. The K (24 h) was 4.1 meq/L, the LDH (24 h) was 240.4 IU/L and the Na (24 h) was 142.6 meq/L. The PL (24 h) was 148.6 mg/dL, the RALB (24 h) was 3.1 g/dL and the TBIL (24 h) was 0.02 mg/dL. It also gave a TC (24 h) of 91 mg/dL, a TG (24 h) of 60.6 mg/dL and a TP (24 h) of 5.6 g/dL. For the same compound, the gamma-GTP (24 h) was 1.6 IU/L.
